Publication PMC7961786, “Magic Peptide: Unique Properties of the LRR11 Peptide in the Activation of Leukotriene Synthesis in Human Neutrophils” (International Journal of Molecular Sciences, 2021)

Columns and labels:
[1] = system: NeutrAvidin; experiment: TSM acoustic biosensor, immobilization of 5′-biotinylated C-CpG on NeutrAvidin surface; type: binding; settings: Sauerbrey's equation, 1 μM 5′-biotinylated ODN on NeutrAvidin
Excerpt: Using Sauerbrey’s Equation (2), (2) Δf=−2f02Δm/Aμqρq where f0 is the fundamental resonance frequency (in our case 8 MHz), Δm is the change in mass (in grams) of the adsorbed layer on the crystal surface, A is the effective crystal area (in our case 0.2 cm^2), μq = 2.947 × 10^11 g × cm^−1s^−2 is the shear modulus of elasticity, and ρq = 2.648 g × cm^−3 is the crystal density, surface concentrations of NeutrAvidin, ODN and LRR11 peptide were estimated based on changes of resonance frequency (Figure 4). According to Equation (2), the surface density of molecules, σ (in molecules/cm^2), can be calculated as σ = ΔmNA/(A × Mw), where NA is Avogadro’s number (=6.023 × 10^23 mol^−1), and Mw represents the molecular weight of the corresponding compound (NeutrAvidin: 65 kDa, 5′-biotinylated C-CpG: 7115.4 Da, and LRR11: 3421 Da). Based on this approach, we obtained the following surface concentration values: 1.94 × 10^13 cm^−2 for NeutrAvidin, 3.37 × 10^13 cm^−2 for C-CpG and 2.4 × 10^13 cm^−2 for LRR11. The NeutrAvidin has four binding sites, two of which are available for biotinylated ODN binding. This is due to the fact that the other two sites are inaccessible due to NeutrAvidin chemisorption on the TSM surface. Thus, the number of available binding sites for the ODN is 3.88 × 10^13 cm^−2. […] Therefore, the surface of the TSM transducer is practically completely saturated by C-CpG. […]

[2] = system: PMNLs; experiment: Neutrophil adhesion to fibrinogen-coated plates; type: cell-based, human; settings: 1 µM ODN +/- 1 µM LRR11, 20 min, 37 °C, n = 3, Figure S2a
Description: Figure S2a. Effects of ODNs and LRR11 peptide on neutrophil adhesiveness. PMNLs (10^6 cells/probe in HBSS/HEPES) supplemented with 1 µM ODN +/- 1 µM LRR11, except for control samples containing HBSS/HEPES instead of ODNs, were incubated in fibrinogen-coated 24-well plates for 20 min at 37 °C in 5 % CO2. The supernatants were then carefully removed, and wells were washed twice with warm PBS to remove unattached cells. Adhesion quantitative assessment was carried out as described in [59]. Briefly, hydrogen peroxide (4 mM final concentration) in permeabilizing buffer (67 mM Na2HPO4, 35 mM citric acid, 0.1% Triton X-100) supplemented with 5.5 mM ortho-phenylenediamine was added to the attached PMNLs for 5 min. The reaction was stopped by adding of 1M H2SO4, followed by recording the absorption values at 492 nm and comparing them with the calibration values. Data are means ± SEM of attached cells amounts, as the percentages of PMNLs initially contained in the samples (n=3; *p < 0.05; **p < 0.01 in comparison with corresponding controls, as indicated by two-way ANOVA followed by Dunnett’s multiple comparison test). […]

| Substance | surface concentration of C-CpG [1] | effect on PMNL adhesion [2] |
| --- | --- | --- |
| 5′-tcgtcgttttcggcgcgcgccg-3′ (DNA TCGTCGTTTTCGGCGCGCGCCG; chemistry not fully specified) [C-CpG] | 3.37 × 10^13 cm^−2 | – |
| QLRKLNLSFNYQKRVSFAHLSLAPSFGSLV [LRR11, 30 amino acid peptide from leucine-rich repeat of TLR9] | – | LRR11 did not affect this |
